Data: ChEMBL document CHEMBL5055656, “Synthesis of novel indole-thiazolidinone hybrid structures as promising scaffold with anticancer potential” (Bioorg Med Chem, 2021)

System: WM793
Assay: Cytotoxicity against human WM793 cells assessed as cell growth inhibition measured after 72 hrs by MTT assay
Format: functional

COC(=O)c1[nH]c2ccc(F)cc2c1/C=C1\SC(=S)NC1=O
GI50: 80.4 µM
